Data from ChEMBL document CHEMBL3045368, “Design, synthesis, and biological activities of novel 2-cyanoacrylates containing oxazole, oxadiazole, or quinoline moieties” (2009).

What was measured:
Assay type in all cases: functional
[1] = test system: Amaranthus retroflexus; assay: Herbicidal activity against Amaranthus retroflexus assessed as inhibition of herb growth at 1.5 kg/ha during postemergence treatment protocol; conditions: post-emergence, read-out: GI
[2] = test system: Amaranthus retroflexus; assay: Herbicidal activity against Amaranthus retroflexus assessed as inhibition of herb growth at 1.5 kg/ha during preemergence treatment protocol; conditions: pre-emergence, read-out: GI
[3] = test system: Brassica napus; assay: Herbicidal activity against Brassica napus (oilseed rape) assessed as inhibition of herb growth at 1.5 kg/ha during preemergence treatment protocol; conditions: pre-emergence, read-out: GI
[4] = test system: Medicago sativa; assay: Herbicidal activity against Medicago sativa (alfalfa) assessed as inhibition of herb growth at 1.5 kg/ha during preemergence treatment protocol; conditions: pre-emergence, read-out: GI
[5] = test system: Digitaria sanguinalis; assay: Herbicidal activity against hairy Digitaria sanguinalis (hairy crabgrass) assessed as inhibition of herb growth at 1.5 kg/ha during postemergence treatment protocol; conditions: post-emergence, read-out: GI
[6] = test system: Cucumis sativus; assay: Plant growth regulatory activity in Cucumis sativus (cucumber) seeds assessed as stimulation of radicle growth level at 10 mg/mL
[7] = test system: Brassica napus; assay: Herbicidal activity against Brassica napus (oilseed rape) assessed as inhibition of herb growth at 1.5 kg/ha during postemergence treatment protocol; conditions: post-emergence, read-out: GI
[8] = test system: Medicago sativa; assay: Herbicidal activity against Medicago sativa (alfalfa) assessed as inhibition of herb growth at 1.5 kg/ha during postemergence treatment protocol; conditions: post-emergence, read-out: GI
[9] = test system: Digitaria sanguinalis; assay: Herbicidal activity against hairy Digitaria sanguinalis (hairy crabgrass) assessed as inhibition of herb growth at 1.5 kg/ha during preemergence treatment protocol; conditions: pre-emergence, read-out: GI

Row | Structure (SMILES) | inhibition of growth at 1500 g/ha [1] [%] | inhibition of growth at 1500 g/ha [2] [%] | inhibition of growth at 1500 g/ha [3] [%] | inhibition of growth at 1500 g/ha [4] [%] | inhibition of growth at 1500 g/ha [5] [%] | Activity [6] [%] | inhibition of growth at 1500 g/ha [7] [%] | inhibition of growth at 1500 g/ha [8] [%] | inhibition of growth at 1500 g/ha [9] [%]
1 | CCOCCOC(=O)/C(C#N)=C(\NCc1ccc2ccccc2n1)C(C)C | 77.8 | 0 | 0 | 0 | 50.6 | 115 | 72 | 0 | 0
2 | CCOCCOC(=O)/C(C#N)=C(\NCc1ccc2ncccc2c1)SC | 100 | 0 | 10 | 0 | 66.2 | 145 | 100 | 0 | 10
3 | CCOCCOC(=O)/C(C#N)=C(\NCc1ccc2ncccc2c1)C(C)C | 0 | 0 | 0 | 0 | 0 | 85 | 73.7 | 10 | 0
4 | CCOCCOC(=O)/C(C#N)=C(\NCc1cnc2ccccc2c1)C(C)C | 100 | 41.9 | 18.2 | 0 | 45.5 | 85 | 100 | 0 | 0
5 | CCOCCOC(=O)/C(C#N)=C(\NCc1cnc2ccccc2c1)SC | 100 | 35.5 | 74.9 | 10 | 48.1 | 110 | 100 | 67.8 | 0
6 | CCOCCOC(=O)/C(C#N)=C(\NCc1coc(-c2ccccc2)n1)SC | 0 | 5 | 5 | 5 | 0 | 50 | 34.7 | 0 | 0
7 | CCOCCOC(=O)/C(C#N)=C(\NCc1coc(-c2ccccc2)n1)C(C)C | 71.4 | 10 | 0 | 0 | 87 | 60 | 87.3 | 0 | 5
8 | CCOCCOC(=O)/C(C#N)=C(\NCc1coc(-c2cccc(Cl)c2)n1)SC | 0 | 0 | 0 | 10 | 6.5 | 80 | 25.4 | 0 | 0
9 | CCOCCOC(=O)/C(C#N)=C(\NCc1coc(-c2cccc(Cl)c2)n1)C(C)C | 84.1 | 0 | 15 | 5 | 0 |  | 80.5 | 0 | 0
10 | CCOCCOC(=O)/C(C#N)=C(\NCc1ncc(C)o1)SC | 100 | 43.9 | 0 | 0 | 10 |  | 10 | 0 | 0
11 | CCOCCOC(=O)/C(C#N)=C(\NCc1ncc(C(C)C)o1)SC | 26.8 | 5 | 10 | 0 | 0 | 63.7 | 5 | 0 | 0
12 | CCOCCOC(=O)/C(C#N)=C(\NCc1ncc(C(C)C)o1)C(C)C | 80.5 | 0 | 52.7 | 0 | 10 | 98.2 | 100 | 15 | 0
13 | CCOCCOC(=O)/C(C#N)=C(\NCc1nc(-c2ccc(C(F)(F)F)cc2)no1)SC | 0 | 0 | 0 | 0 | 37.5 |  | 100 | 0 | 0
14 | CCOCCOC(=O)/C(C#N)=C(\NCc1nc(-c2ccc(C(F)(F)F)cc2)no1)C(C)C | 100 | 50.3 | 48.4 | 0 | 57.5 |  | 100 | 43.2 | 10
15 | CCOCCOC(=O)/C(C#N)=C(\NCc1nc(-c2ccc(F)cc2)no1)SC | 0 | 0 | 10 | 0 | 10 |  | 15 | 0 | 0
16 | CCOCCOC(=O)/C(C#N)=C(\NCc1nc(-c2ccc(F)cc2)no1)C(C)C | 100 | 0 | 88 | 0 | 82.5 |  | 100 | 10 | 0
17 | CCOCCOC(=O)/C(C#N)=C(/CC)NCc1nc(-c2ccc(F)cc2)no1 | 0 | 0 | 15 | 0 | 0 |  | 0 | 0 | 0
18 | CCOCCOC(=O)/C(C#N)=C(\NCc1ccc2ccccc2n1)SC | 0 | 0 | 0 | 0 | 0 | 60 | 35.6 | 15 | 0
19 | CCOCCOC(=O)/C(C#N)=C(/CC)NCc1ccc2ccccc2n1 | 0 | 20 | 0 | 0 | 0 | 95.4 | 8.5 | 0 | 0
